The target in assay [1] is T1, PETase (wild-type PETase, IsPETase) (Pseudideonella sakaiensis, UniProt A0A0K8P6T7, W159H/S238F).
T1 construct: gene ISF6_4831
The experiment in a line: single-molecule TIRF of Qdot655-labelled PETase on PET film, competition by pNPA. It counts as binding. The settings on record: 4 mM pNPA; competitive with PET; also model soluble substrate; 50 mM sodium phosphate, 100 mM NaCl, pH 7.4, 22 °C.

Assay [2] addresses T2, PETase (wild-type PETase, IsPETase) (Pseudideonella sakaiensis, UniProt A0A0K8P6T7).
T2 construct: gene ISF6_4831
The description is as above. It counts as binding. The settings on record: 4 mM pNPA; competitive with PET; also model soluble substrate; 50 mM sodium phosphate, 100 mM NaCl, pH 7.4, 22 °C.

Results on 1 compound are retold here after doi:10.1101/2024.04.24.590935, “Measuring PETase enzyme kinetics by single-molecule microscopy” (bioRxiv, 2024).

T1 sequence (A0A0K8P6T7 28-290 W159H/S238F): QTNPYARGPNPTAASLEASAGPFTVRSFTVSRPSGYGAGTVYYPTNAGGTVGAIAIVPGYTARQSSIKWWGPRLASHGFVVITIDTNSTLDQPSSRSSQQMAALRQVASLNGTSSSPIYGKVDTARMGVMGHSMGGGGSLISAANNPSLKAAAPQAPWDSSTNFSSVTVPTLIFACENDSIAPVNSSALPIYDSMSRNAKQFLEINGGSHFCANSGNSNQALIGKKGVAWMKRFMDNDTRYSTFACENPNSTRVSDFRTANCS
T2 sequence (A0A0K8P6T7 28-290): as the sequence (A0A0K8P6T7 28-290 W159H/S238F) above, with H132W, F211S counted along it

With `CC(=O)Oc1ccc([N+](=O)[O-])cc1` [4-Nitrophenyl acetate], the “single-molecule TIRF of Qdot655-labelled PETase on PET film, competition by pNPA” value in assay [1] is “pNPA strongly diminished the landing rate of the wild-type and hyperactive mutant”; in assay [2] it was “pNPA reduced the binding duration of wild-type PETase and the hyperactive variant”.
